According to patent US7998940B2, “Aptamers to von Willebrand factor and their use as thrombotic disease therapeutics” (Archemix Corp., priority 2004, dated 2011):
Where two headings read alike, the source gives them in different places. Oligonucleotides are written 5' to 3', each unit as a sugar letter and its base; * is a phosphorothioate linkage, no mark a phosphodiester; rarer units and linkages stand in square brackets, end groups in braces. Plain capitals give the bases only. {PEG20K-NH2} = 20 kDa PEG attached to the 5' nucleotide via an amine linker; [invdT] = inverted (3'-3') thymidine; d = 2'-deoxy (DNA); r = 2'-OH (RNA)

Tests used:
[1] = system: botrocetin induced platelet aggregation; assay: Inhibition of botrocetin induced platelet aggregation (BIPA) in human PRP; assay type: cell-based; conditions: for ≦200 nM aptamer gives >90% blocking in BIPA at 6 minutes: botrocetin induced platelet aggregation
Description: In platelet rich plasma isolated from fresh human blood, botrocetin induces platelet aggregation via vWF. Platelet aggregate formation can be measured optically as an increase in % light transmittance on a Chronolog Model 490-4D Aggregometer because aggregation of platelets clarifies the plasma. Aptamers of the invention were analyzed for their ability to inhibit botrocetin induced platelet aggregation (“BIPA”) in human blood. An aptamer of the invention was considered to be active if it could prevent aggregate formation for six minutes post botrocetin addition.
In order to determine the activity of aptamers on live human platelets, BIPA assays were done using freshly prepared platelet rich plasma. Blood was obtained from healthy human donors who had not taken NSAIDS for at least five days. […] Collected blood was pooled into 15 mL conical tubes and was spun at 200 g for 20 minutes. The turbid, yellow layer of platelet rich plasma (“PRP”) was withdrawn from the tubes, pooled, and set aside at room temperature. The remaining blood was spun at 2500 g for ten minutes. The clarified layer of plasma, known as platelet poor plasma (“PPP”), was withdrawn and set aside at room temperature. PRP was aliquoted into cuvettes containing stir bars at a volume of 470 uL. A sample of 500 uL of PPP was aliquoted into a cuvette and placed in the PPP reference cell of the platelet aggregometer. Samples of PRP were prewarmed at 37 degrees C. in the platelet aggregometer for 3-5 minutes before being used in BIPA assays. First, the concentration of botrocetin needed to induce platelet aggregation for each individual donor was determined by titration. This concentration of botrocetin was used for the remainder of the experiment. Next, aptamer was assayed by adding titrations of aptamer (zero, 1 nM to 1000 nM) to prewarmed PRP for one minute, followed by addition of botrocetin. With platelet aggregation, an increase in amplitude of light transmission is seen (FIG. 8). The concentration at which platelet aggregation is blocked at 90% or greater after 6 minutes is reported in the final column of Table 26.

[2] = system: rabbit vWF A1 domain (SEQ ID NO 6); assay: dot blot KD determination, rabbit vWF A1 domain; assay type: binding
rabbit vWF A1 domain (SEQ ID NO 6), sequence (as listed by the source): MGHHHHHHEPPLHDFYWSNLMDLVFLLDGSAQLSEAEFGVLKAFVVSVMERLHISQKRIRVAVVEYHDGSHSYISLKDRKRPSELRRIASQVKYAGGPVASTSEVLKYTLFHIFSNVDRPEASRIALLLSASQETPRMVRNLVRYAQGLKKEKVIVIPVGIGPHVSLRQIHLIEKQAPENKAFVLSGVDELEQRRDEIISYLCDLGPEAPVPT
Description: A 12 point protein titration was used in the dot blot assay (300 nM, 100 nM, 30 nM, 10 nM, 3 nM, 1 nM, 300 pM, 100 pM, 30 pM, 10 pM, 3 pM, 0 pM) in 1×DPBS plus 0.1 mg/mL BSA at room temperature for 30 minutes.

[3] = system: full length human vWF (SEQ ID NO 7); assay: dot blot KD determination and extent of binding, full length human vWF; conditions: for Kd: read-out: Full length human vWF KD;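 for all read-outs here: dot blot binding of aptamers to full length human vWF across a protein titration, incubated 30 minutes at room temperature in 1x DPBS with BSA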
Description: Based on this initial screen, KDs were determined for 3 of the vWF dependent binding sequences using the dot blot assay. […] A 12 point protein titration was used in the dot blot assay (300 nM, 100 nM, 30 nM, 10 nM, 3 nM, 1 nM, 300 pM, 100 pM, 30 pM, 10 pM, 3 pM, 0 pM) in 1×DPBS plus 0.1 mg/mL BSA at room temperature for 30 minutes.
An 8 point protein titration was used in the dot blot binding assay (100n M, 30 nM, 10 nM, 3 nM, 1 nM, 300 pM, 100 pM, 0 pM)) in 1× Dulbecco's PBS containing 0.1 BSA (final volume of 50 uL) for 30 minutes at room temperature.

[4] = molecular target: human vWF A1 domain (SEQ ID NO 5) (Homo sapiens, UniProt P04275, T1381A); assay: dot blot KD determination, human vWF A1 domain; conditions: read-out: Human vWF A1 domain KD
human vWF A1 domain (SEQ ID NO 5), sequence (P04275 with tags, fused parts or gaps T1381A): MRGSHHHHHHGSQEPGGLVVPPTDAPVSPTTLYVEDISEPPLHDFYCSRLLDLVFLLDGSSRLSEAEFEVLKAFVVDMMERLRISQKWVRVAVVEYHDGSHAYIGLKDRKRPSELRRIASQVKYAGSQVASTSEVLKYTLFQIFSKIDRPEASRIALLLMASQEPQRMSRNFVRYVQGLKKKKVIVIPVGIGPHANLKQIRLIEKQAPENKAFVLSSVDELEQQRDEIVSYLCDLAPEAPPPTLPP
Description: For KD determination, aptamers transcripts were purified on 10% denaturing polyacrylamide gels, 5′ end labeled with γ-^32P ATP.
For KD determination, aptamers were purified on denaturing polyacrylamide gels and 5′-end labeled with γ-^32P ATP. A 6 point protein titration of human vWF A1 domain (SEQ ID NO 5) was used in the dot blot assay (333 nM, 100 nM, 33 nM, 10 nM, 3 nM, 0 nM) in 1×DPBS plus 0.1 mg/mL BSA at room temperature for 30 minutes. KD values were calculated by fitting the equation y=(max/(1+K/protein))+yint using KaleidaGraph (KaleidaGraph v. 3.51, Synergy Software).
KD values were calculated by fitting the equation y=(max/(1+K/protein))+yint using KaleidaGraph (KaleidaGraph v. 3.51, Synergy Software).
All minimer sequences were transcribed, gel-purified on 15% denaturing polyacrylamide gels, 5-^32 end-labeled with γ^32P ATP, and then desalted using two Centri-Spin 10 columns (Princeton Separations Cat. #CS-101, Adelphia, N.J.). For KD determination, minimer transcripts were tested for direct binding to full length human vWF (SEQ ID NO 7), human vWF A1 domain (SEQ ID NO 5), and rabbit vWF A1 domain (SEQ ID NO 6) using an 8 point protein titration from 0-300 nM (3 fold dilutions) in 1× Dulbecco's PBS containing 0.1 mg/mL BSA (in a final volume of 50 uL) for 30 minutes at room temperature and then applied to a nitrocellulose and nylon filter sandwich in a dot blot apparatus (Schleicher and Schuell, Keene, N.H.). KD values were calculated by fitting the equation y=(max/(1+K/protein))+yint using KaleidaGraph (KaleidaGraph v. 3.51, Synergy Software).
All minimer DNA sequences were chemically synthesized, 5-^32P end-labeled with γ-^32P ATP, and then desalted using two Centri-Spin 10 columns (Princeton Separations, Cat. #CS-101, Adelphia, N.J.). […] KD values were calculated by fitting the equation y=(max/(1+K/protein))+yint using KaleidaGraph (KaleidaGraph v. 3.51, Synergy Software).

[5] = system: full length human vWF binding to lyophilized platelets; assay: Full length human von Willebrand Factor platelet binding assay (FACS); assay type: cell-based
Summary of the method: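 Aptamer titrations (0.1–1000 nM) pre-incubated with 5 nM full-length human vWF, then added to lyophilized platelets plus botrocetin for 15 min at 37 °C in PBS/0.5% BSA. Bound vWF detected by anti-vWF then FITC secondary antibody via flow cytometry MFI; % inhibition versus no-aptamer binding fitted for IC50.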

[6] = system: rabbit vWF domain A1 binding to lyophilized platelets; assay: Rabbit von Willebrand Factor domain A1 platelet binding assay (FACS); assay type: cell-based
rabbit vWF domain A1 binding to lyophilized platelets, sequence (as listed by the source): as the sequence (as listed by the source) above
Description: Botrocetin induces the binding of the A1 domain of vWF to platelets, as well as the full length protein. It was determined by the inventors that 6-Histidine-tagged rabbit A1 domain vWF purified protein could be induced to bind to human lyophilized platelets with botrocetin. Rabbit A1 binding to platelets is measured with an anti-poly-His antibody followed by incubation with a phycoerythrin conjugated secondary antibody. The degree of binding can be quantified by flow cytometric analysis. The ability of aptamers to block the binding of rabbit A1 to human fixed platelets was correlated with decreased fluorescence signal.
The ability of aptamers of the invention to block rabbit vWF domain A1 binding to lyophilized platelets was also assessed by flow cytometric analysis. Titrations of aptamers (zero, 0.1 nM to 1000 nM) were preincubated briefly with 4 nM of rabbit A1 vWF in FACS buffer (PBS plus 0.5% bovine serum albumin) at room temperature in a volume of 50 uL. Another 50 uL containing 5 uL of lyophilized platelets plus 1 uL of 0.1 U/uL of botrocetin in FACS buffer was added to aptamer/vWF. This reaction was allowed to proceed for 15 minutes at 37 degrees C. after which 200 uL of FACS buffer was added. Platelets were collected by a 6 minute spin at 1470 RCF and the supernatant was discarded. The pellets were resuspended in 100 uL of FACS buffer containing a 1:200 dilution of anti-Penta-HIS-biotin conjugate antibody and were incubated at room temperature for 30 minutes. After the dilution with 200 uL of FACS buffer, the platelets were spun at 1470 RCF for 6 minutes, and the supernatant was discarded. The pellets were resuspended in a 1:100 solution of anti-IgG-PE antibody and were incubated in the dark for 30 minutes at room temperature. The entire 100 uL was diluted into 200 uL of FACS buffer and analyzed immediately by flow cytometric analysis in the FACSCAN. Contaminating debris was eliminated from the analysis by drawing a gate around the population of single and aggregated platelets and collecting data from 10000 events. Median fluorescent intensity (“MedFI”) readings (which are generally equivalent to the MFI readings, described in Example 3a above, for comparative purposes) were quantified for each sample analyzed by flow cytometry. Background MedFI was subtracted from all data points. Percent inhibition was reported by calculating the percent value of binding of […] to platelets in the presence of aptamer at a given concentration relative to binding in the absence of any aptamer (see FIG. 7). IC50 values were determined by fitting the percent inhibition of vWF binding to platelets as a function of aptamer concentration to the equation: % inhibition=% inhibitionmax/(1+IC50/aptamer conc.)

[7] = system: vWF dependent platelet plug formation, human whole blood; assay: PFA-100 assay, human whole blood; assay type: cell-based; conditions: citrated human whole blood; minimum concentration that extends closing time to 300 seconds
Text: Another assay of this Example, using the PFA-100 instrument, is an agonist independent but vWF dependent assay that uses the PFA-100 instrument (Harrison et al., Clin. Lab. Haem., v24, p 225-32 (2002)). The PFA-100 simulates the formation of a hemostatic plug under conditions of high shear force in vivo by recording the time required for a platelets to aggregate and block the flow of citrated whole blood through a microscopic aperture in a membrane coated with collagen and either epinephrine or ADP. This activity is von Willebrand factor dependent as high MW vWF multimers bind to immobilized collagen on the membrane and then bind to and activate platelets because of the shear force induced by drawing the blood through the microscopic aperture.
Fresh whole blood was collected from healthy non-steroidal anti-inflammatory drug (NSAID) free cynomolgus macaques. Aptamers were diluted with physiological saline from Aldon (Cat#9420306) in no-additive vacutainer tubes (Cat#366434, Becton Dickenson). Samples were loaded onto collagen/epinephrine test cartridges (Cat#B4170-20A, Dade Behring) which were used in the PFA-100 machine (Dade Behring). Trigger solution (Cat#B4170-50, Dade Behring) was used in the self-test and to pre-wet the test cartridges. O-ring cleaning pads (Cat#B4170-73, Dade Behring) were used in the self-test and in the O-ring cleaning process.
A self-test, which included an O-ring cleaning process, was always run on the PFA-100 machine before running any samples to ensure proper function of the machine.
During the entire experiment, the tubes of whole blood were gently inverted every five minutes to prevent settling.
In order to assay the titration of aptamer in whole blood, the aptamer was added to no-additive vacutainer tubes and diluted to the desired concentrations (ex: 0 nM, 1 nM to 1000 nM) using physiological saline such that the final volume was […]. When the PFA-100 was ready to run the next set of samples, 1940 μl of whole blood was added to the tube containing a concentration of aptamer. This tube was gently inverted three times to thoroughly mix the aptamer and blood. Samples were always run in duplicate on the PFA-100 machine. 800 μl of this blood mixture was loaded into the collagen/epinephrine test cartridges. The test cartridges were loaded onto the PFA-100 machine. The time of occlusion of the aperture was measured by the PFA-100, with a maximal time of 300 seconds. We estimate the IC95 in this assay to be the minimum concentration of aptamer that extends the closing time to 300 seconds.

[8] = rRdY minimers, 8 point titration 0-300 nM
[9] = 5 nM full length human vWF, lyophilized platelets, botrocetin, read-out: Inhibition of full length hVWF binding in FACS assay, Average IC50
[10] = 4 nM rabbit A1 vWF, lyophilized platelets, botrocetin, read-out: Inhibition of rabbit VWF A1 domain binding in FACS assay, Average IC50
[11] = 5 nM full length human vWF, lyophilized platelets, botrocetin, units in the cell: lower bound pM, upper bound nM, read-out: Inhibition of full length hVWF binding in FACS assay, IC50 range
[12] = DNA 2 minimers, 9 point protein titration
[13] = 4 nM rabbit A1 vWF, lyophilized platelets, botrocetin, units in the cell: lower bound pM, upper bound nM, read-out: Inhibition of rabbit VWF A1 domain binding in FACS assay, IC50 range

Substance	≦200 nM aptamer gives >90% blocking in BIPA at 6 minutes [1]	IC50 [5, 9] [pM]	IC50 [6, 10] [pM]	IC50 [5, 11] [pM]	Kd [2, 12] [nM]	Kd [3, 12] [nM]	other results
ATGAGAGTGCTGGTGGATTGCTCAGGTCTGCTGGCTGCTTACTCTCAT (DNA, backbone not given here) [ARC845, minimized DNA aptamer]	no activity						Kd ([2]; DNA 1 minimers): 56 nM; Full length human vWF KD ([3]; DNA 1 minimers): No binding; Kd ([4]; DNA 1 minimers, competition dot blot, 10 nM protein): 10 nM; Inhibition of full length hVWF binding in FACS assay, Average IC50 ([5]; 5 nM full length human vWF, lyophilized platelets, botrocetin): no activity; Inhibition of full length hVWF binding in FACS assay, IC50 range ([5]; 5 nM full length human vWF, lyophilized platelets, botrocetin, both bounds in nM): no activity; Inhibition of rabbit VWF A1 domain binding in FACS assay, Average IC50 ([6]; 4 nM rabbit A1 vWF, lyophilized platelets, botrocetin): no activity; Inhibition of rabbit VWF A1 domain binding in FACS assay, IC50 range ([6]; 4 nM rabbit A1 vWF, lyophilized platelets, botrocetin, both bounds in nM): no activity
GGAGCCACACGACATTGGCGGGCGAGAGCCACGCATGGCTCC (rGrGrArGdCdCrAdCrAdCrGrAdCrAdTdTrGrGdCrGrGrGdCrGrArGrArGdCdCrAdCrGdCrAdTrGrGdCdTdCdC) [SEQ ID NO 192, minimized rRdY aptamer]	yes	2600	2200				Kd [2, 8]: 8 ± 1 nM; Kd [3, 8]: 2 ± 0.2 nM; Kd [4, 8]: 4 ± 1 nM
GGAGCCACGGGGTGGGTAGACGGCGGGTATGTGGCTCC (rGrGrArGdCdCrAdCrGrGrGrGdTrGrGrGdTrArGrAdCrGrGdCrGrGrGdTrAdTrGdTrGrGdCdTdCdC) [SEQ ID NO 180, minimized rRdY aptamer]	yes	2000	9300	731 to 3800			Kd [2, 8]: 14 nM; Kd [3, 8]: 1 nM; Kd [4, 8]: 11 nM
GGCGTGCAGTGCC-[PEG]-GGCCGTGCGGTGCCTCCGTCACGCC-3T (DNA GGCGTGCAGTGCCGGCCGTGCGGTGCCTCCGTCACGCCT; chemistry not fully specified) [ARC1029, minimized DNA aptamer]	yes	609	754	333 to 1100	6.5 ± 1.5	1.4 ± 0.2	inhibition of botrocetin induced platelet aggregation ([1]; in words, human PRP): inhibiting botrocetin induced platelet aggregation; inhibition of binding of human vWF to lyophilized human platelets ([5]; in words, FACS, FIG. 7): inhibits binding; inhibition of binding of rabbit vWF A1 domain to lyophilized human platelets ([6]; in words, FACS, FIG. 7): inhibits binding
GGCGTGCAGTGCCTATTCTAGGCCGTGCGGTGCCTCCGTCACGCC-3T (DNA, [invdT] at 3' end, backbone not given here) [ARC 1027, minimized DNA aptamer]	yes	1500	2000	208 to 4200	4.6	0.8	IC50 [6, 13]: 462 to 4200 pM
PEG20K-NH2-dGdGdCdGTdGdCdAdGTdGdCdCTTdCdGdGdCdCdGTdGdCdGdGTdGdCdCTdCdCdGTdCdAdCdGdCdC-3T (GGCGTGCAGTGCCTTCGGCCGTGCGGTGCCTCCGTCACGCC; DNA, [invdT] at 3' end, 5' {PEG20K-NH2}, backbone not given here) [ARC1885, 20 kDa PEG conjugate of ARC1172]							IC90 ([1]; human platelet rich plasma): ~50 nM; ~IC95 PFA-100 (nM) with citrated human whole blood [7]: ~100 nM
dGCGTGCAGTGCCT-[PEG]-AGGCCGTGCGGTGCCTCCGTCACGCC-3T (DNA GCGTGCAGTGCCTAGGCCGTGCGGTGCCTCCGTCACGCCT; chemistry not fully specified) [ARC1028, minimized DNA aptamer]	yes	1200	1500	473 to 2700	3.8	1.1	IC50 [6, 13]: 526 to 2700 pM
